Measurements reported in PMC11863921 (BMC Biology, 2025).
Entries after “also recorded” stand apart in the source; their conditions may differ.

How the values were obtained:
modified ArubRXFP/LGR3 = assay: Luminescence (GFP-aequorin G5A, GqS5) assay in CHO-K1 cells transfected with modified ArubRXFP/LGR3; format: cell-based, A. rubens; conditions: Fig. 6 C, D
Source text: Thus, modified ArubRXFP/LGR3 was similar in this respect to the modified AsolRXFP/LGR3 protein (Fig. 5).
A. rubens RGP1 and RGP2 (ArubRGP1, ArubRGP2) were custom synthesized with a purity of > 95%, as reported previously. Two genes encoding relaxin receptor-related proteins were identified in A. rubens and, informed by phylogenetic analysis, these were named ArubRXFP/LGR3 and ArubLGR4. Then cDNAs encoding these proteins were custom synthesized with the inclusion of a 5′ partial Kozak translation initiation sequence (GCCACC) and incorporated into the mammalian expression vector pcDNA 3.1( +) (Genscript, Hong Kong) (Additional file 18: Dataset S11). […]
(§1) AruRGP1 and AruRGP2 were tested as ligands for the A. rubens receptors using luminescence-based assays, which have been described previously. […] A FLUOstar Omega Plate Reader (BMG LABTECH; FLUOstar Omega Series multi-mode microplate reader) with injectors was used to sequentially add transfected CHO-K1 cells to each test well of the microtiter plate and luminescence was recorded over a 35-s period. Luminescence data were integrated over the 35 s measurement period and the mean of the triplicate measurements was calculated. Responses were normalized to the maximum response obtained in each experiment (100% activation) and to luminescence measured with the vehicle media (0% activation) (Additional file 19: Dataset S12). […]

[1] = system: CHO-K1 cells transfected with an empty pcDNA3.1 + vector; assay: Luminescence (GFP-aequorin G5A, GqS5) assay in CHO-K1 cells transfected with empty pcDNA3.1 vector; format: cell-based, Chinese hamster; conditions: 10^−14 to 10^−5 M, Fig. 6 G, H
Procedure: ArubRGP1 and ArubRGP2 were tested as ligands for ArubRXFP/LGR3 (isoform X2; XP_033631990.1) and ArubLGR4 (isoform X3; XP_033635731.1) by co-transfection of CHO-K1 cells stably expressing the green fluorescent protein (GFP) – apoaequorin construct G5A [25] with the chimeric G-protein Gqs5, which is a Gq-type protein modified to incorporate Gs-type sequences that enable it to interact with GPCRs that preferentially couple to Gs-type G-proteins. Synthetic ArubRGP1 or ArubRGP2 were initially tested at a concentration of 10^−5 M, comparing with luminescence measured in transfected cells incubated in basal media without the addition of ArubRGP1 or ArubRGP2. […]
as §1

ArubLGR4 = assay: Luminescence (GFP-aequorin G5A, GqS5) assay in CHO-K1 cells transfected with ArubLGR4; format: cell-based, A. rubens; conditions: for luminescence versus basal media: 10^−5 M; for luminescence response: 10^−14 to 10^−5 M, Fig. 6 E, F
Procedure: (§2) ArubRGP1 and ArubRGP2 were tested as ligands for ArubRXFP/LGR3 (isoform X2; XP_033631990.1) and ArubLGR4 (isoform X3; XP_033635731.1) by co-transfection of CHO-K1 cells stably expressing the green fluorescent protein (GFP) – apoaequorin construct G5A [25] with the chimeric G-protein Gqs5, which is a Gq-type protein modified to incorporate Gs-type sequences that enable it to interact with GPCRs that preferentially couple to Gs-type G-proteins. Synthetic ArubRGP1 or ArubRGP2 were initially tested at a concentration of 10^−5 M, comparing with luminescence measured in transfected cells incubated in basal media without the addition of ArubRGP1 or ArubRGP2.
A. rubens RGP1 and RGP2 (ArubRGP1, ArubRGP2) were custom synthesized with a purity of > 95%, as reported previously. Two genes encoding relaxin receptor-related proteins were identified in A. rubens and, informed by phylogenetic analysis, these were named ArubRXFP/LGR3 and ArubLGR4. Then cDNAs encoding these proteins were custom synthesized with the inclusion of a 5′ partial Kozak translation initiation sequence (GCCACC) and incorporated into the mammalian expression vector pcDNA 3.1( +) (Genscript, Hong Kong) (Additional file 18: Dataset S11). Likewise, a cDNA encoding an N-terminally modified form of ArubRXFP/LGR3 incorporating an N-terminal signal peptide from the bovine prolactin precursor was also synthesized (with codon optimization for mammalian expression) (Genewiz, Takeley, UK) and this is referred to henceforth as ArubRXFP/LGR3(modified) (Additional file 18: Dataset S11). Chinese hamster ovary cells (CHO-K1) stably expressing the calcium-sensitive aequorin fusion protein G5A were used as an expression system. This cell line was supplied by Prof. Gaspar Jékely (University of Heidelberg, Germany) and tested negative for mycoplasma contamination using a MycoAlert PLUS kit (Lonza, Switzerland). […]
as §1

ArubRXFP/LGR3 = assay: Luminescence (GFP-aequorin G5A, GqS5) assay in CHO-K1 cells transfected with ArubRXFP/LGR3; format: cell-based, A. rubens; conditions: for luminescence response at 10^−5 M versus background: basal media as background; for EC50: 10^−14 to 10^−5 M, 35 s, three independent transfections, four-parameter fit, read-out: EC50 for induced luminescence; for luminescence response versus BSA control: 10–5 M, 30 s, one-way ANOVA with Bonferroni (***p < 0.001, *p < 0.1), Fig. S6; for dose-dependent triggering of luminescence: Fig. 6 A, B
Procedure: as §2
A. rubens RGP1 and RGP2 (ArubRGP1, ArubRGP2) were custom synthesized with a purity of > 95%, as reported previously. Two genes encoding relaxin receptor-related proteins were identified in A. rubens and, informed by phylogenetic analysis, these were named ArubRXFP/LGR3 and ArubLGR4. Then cDNAs encoding these proteins were custom synthesized with the inclusion of a 5′ partial Kozak translation initiation sequence (GCCACC) and incorporated into the mammalian expression vector pcDNA 3.1( +) (Genscript, Hong Kong) (Additional file 18: Dataset S11). Likewise, a cDNA encoding an N-terminally modified form of ArubRXFP/LGR3 incorporating an N-terminal signal peptide from the bovine prolactin precursor was also synthesized (with codon optimization for mammalian expression) (Genewiz, Takeley, UK) and this is referred to henceforth as ArubRXFP/LGR3(modified) (Additional file 18: Dataset S11). Chinese hamster ovary cells (CHO-K1) stably expressing the calcium-sensitive aequorin fusion protein G5A were used as an expression system. This cell line was supplied by Prof. Gaspar Jékely (University of Heidelberg, Germany) and tested negative for mycoplasma contamination using a MycoAlert PLUS kit (Lonza, Switzerland). The CHO-K1 cells were cultured in a culture medium comprising DMEM/F12, 10% fetal bovine serum, antibiotic–antimycotic, and […] Geneticin G418 sulfate (all purchased from Thermo Fisher scientific, Oxford, UK; cat no. 11039047, 10,082,147, 15,240,062, and 10,131,035, respectively.) When the cells reached 80% confluency, they were co-transfected with plasmids containing cDNAs encoding ArubRXFP/LGR3, ArubRXFP/LGR3(modified), or ArubLGR4 and a plasmid encoding the chimeric G-protein GqS5 (Addgene, Watertown USA), which enables GPCRs that preferentially couple to Gq-type or Gs-type proteins to signal via the phospholipase-C signaling pathway.
AruRGP1 and AruRGP2 were tested as ligands for the A. rubens receptors using luminescence-based assays, which have been described previously. Thus, 48 h after transfection, cells were detached by using PBS buffer (pH7.4; Thermofisher Scientific, Oxford, UK; cat no.10010023) supplemented with a final concentration of 5 mM EDTA pH8.0 (Thermo Fisher Scientific, Oxford, UK; cat no.15575020). Cells were then washed with DMEM/F12 buffer and then incubated with […] coelenterazine-H (Thermo Fisher Scientific, Oxford, UK; cat no. C6780) at room temperature with stirring for 3 h. ArubRGP1 or ArubRGP2 were prepared at concentrations ranging from 10^−14 to 10^−5 M and then were pipetted into 96-well plates (Costar Assay microplate, REF: 3903 or Falcon 96 well microplate, Code: 353,377). A FLUOstar Omega Plate Reader (BMG LABTECH; FLUOstar Omega Series multi-mode microplate reader) with injectors was used to sequentially add transfected CHO-K1 cells to each test well of the microtiter plate and luminescence was recorded over a 35-s period. Luminescence data were integrated over the 35 s measurement period and the mean of the triplicate measurements was calculated. Responses were normalized to the maximum response obtained in each experiment (100% activation) and to luminescence measured with the vehicle media (0% activation) (Additional file 19: Dataset S12). […]

[2] = biological target: Acanthaster cf. solaris relaxin family peptide receptor/leucine-rich repeat G protein-coupled receptor 3, N-terminally modified (prolactin signal peptide, FLAG tag) (Acanthaster cf. solaris)
[3] = biological target: modified ArubRXFP/LGR3 (N-terminal region with the predicted internal signal peptide replaced by the prolactin precursor signal peptide) (Asterias rubens)
[4] = biological target: Asterias rubens relaxin family peptide receptor/leucine-rich repeat G protein-coupled receptor 3 (isoform X2) (Asterias rubens)
[5] = biological target: Asterias rubens relaxin family peptide receptor/leucine-rich repeat G protein-coupled receptor 3 (isoform X2) (Asterias rubens); remark: listed apart in the source

Substance | dose-dependent triggering of luminescence (modified ArubRXFP/LGR3) | luminescence response [1] | luminescence versus basal media (ArubLGR4) | luminescence response (ArubLGR4) | luminescence response at 10^−5 M versus background (ArubRXFP/LGR3) | EC50 (ArubRXFP/LGR3) [nM] | luminescence response versus BSA control (ArubRXFP/LGR3) | dose-dependent triggering of luminescence (ArubRXFP/LGR3) | percentage of forskolin-induced cAMP levels (CRE reporter) in CHO-AsolRXFP/LGR3 cells at 10 µM AsolRGP2; no dose-response curve could be fitted (% forskolin response) [2] | EC50 of peptide-induced luminescence (GFP-apoaequorin G5A, chimeric G-protein GqS5) in CHO-K1 cells transfected with modified ArubRXFP/LGR3 [3] [nM] | EC50 of peptide-induced luminescence (GFP-apoaequorin G5A, chimeric G-protein GqS5) in CHO-K1 cells transfected with ArubRXFP/LGR3 [4] [nM] | EC50 of peptide-induced luminescence (GFP-apoaequorin G5A, chimeric G-protein GqS5) in CHO-K1 cells transfected with ArubRXFP/LGR3, 10^-14 to 10^-5 M [5] [nM]
Asterias rubens Relaxin-like gonad-stimulating peptide 2 [ArubRGP2] | trigger dose-dependent luminescence | no response; also recorded: do not trigger luminescence | not significantly different | no response; also recorded: do not trigger luminescence | approximately twice the background luminescence | 383 | significantly higher | trigger dose-dependent luminescence | – | – | – | –
Asterias rubens Relaxin-like gonad-stimulating peptide 1 [ArubRGP1] | trigger dose-dependent luminescence | no response; also recorded: do not trigger luminescence | not significantly different | no response; also recorded: do not trigger luminescence | approximately twice the background luminescence | 22.5 | significantly higher | trigger dose-dependent luminescence | – | – | – | –
Acanthaster cf. solaris relaxin-like gonad-stimulating peptide 2 (ligand) | – | – | – | – | – | – | – | – | 12.2 | – | – | –
Asterias rubens relaxin-like gonad-stimulating peptide 1 (ligand) | – | – | – | – | – | – | – | – | – | 110 | 25 | 22.5
